Experimental data: patent US9169260B2 (MERCK SHARP & DOHME CORP., priority 2011, dated 2015)
pIC50: −log10 of the molar value.

Molecular target: GST tagged IRAK-4 (Homo sapiens (Human), UniProt Q9NWZ3)
Assay: IRAK-4 Kinase Assay (IMAP fluorescence polarization)
Assay type: biochemical
Settings: 100 μM ATP, 30 minutes at 25° C.; for IC50: μM
In short: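 Activity was read by IMAP fluorescence polarization, where phosphopeptide binding to M(III) nanoparticles raises FP. The 30-minute, 25° C reaction used 100 μM ATP, 100 nM RP7030 substrate and 0.5 nM GST-IRAK-4 in pH 7.2 Tris buffer with MgCl2, DTT and Tween 20.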

Sequence of GST tagged IRAK-4 (Q9NWZ3 whole entry): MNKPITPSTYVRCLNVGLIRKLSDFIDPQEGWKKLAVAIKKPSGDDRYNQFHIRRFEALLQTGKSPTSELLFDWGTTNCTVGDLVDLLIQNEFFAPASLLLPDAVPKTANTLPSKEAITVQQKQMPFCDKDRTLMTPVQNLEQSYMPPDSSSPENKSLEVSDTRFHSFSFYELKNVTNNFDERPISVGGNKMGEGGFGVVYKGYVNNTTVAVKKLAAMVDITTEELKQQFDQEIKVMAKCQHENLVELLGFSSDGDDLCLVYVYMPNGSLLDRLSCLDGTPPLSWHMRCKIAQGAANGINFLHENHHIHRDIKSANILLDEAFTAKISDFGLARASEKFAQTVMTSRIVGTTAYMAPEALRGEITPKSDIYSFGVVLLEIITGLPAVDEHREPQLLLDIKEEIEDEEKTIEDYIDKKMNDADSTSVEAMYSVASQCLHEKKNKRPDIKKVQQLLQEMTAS

| Compound | pIC50 | IC50 |
| --- | --- | --- |
| Cc1ccc(-n2nc(-c3ccc(S(=O)(=O)N4CCN(C)CC4)cc3)cc2NC(=O)c2cnn3cccnc23)nc1 [Example 178, N-(3-(4-((4-methylpiperazin-1-yl)sulfonyl)phenyl)-1-(5-methylpyridin-2-yl)-1H-pyrazol-5-yl)pyrazolo[1,5-a]pyrimidine-3-carboxamide] | > 7.00 |  |
| Cc1ccc(-n2nc(C3CCN(CC4CCOC4)CC3)cc2NC(=O)c2cnn3cccnc23)cc1 (stereo not drawn) [Example 228, N-{1-(4-methylphenyl)-3-[1-(tetrahydrofuran-3-ylmethyl)piperidin-4-yl]-1H-pyrazol-5-yl}pyrazolo[1,5-a]pyrimidine-3-carboxamide] | > 7.00 |  |
| Cc1ccc(-n2nc(C3CN(S(=O)(=O)C4CC4)C3)cc2NC(=O)c2cnn3cccnc23)cc1 [Example 84, N-(3-(1-(cyclopropylsulfonyl)azetidin-3-yl)-1-(p-tolyl)-1H-pyrazol-5-yl)pyrazolo[1,5-a]pyrimidine-3-carboxamide] |  | < 1 µM |
| Cc1ccc(-n2nc(-c3ccncc3)cc2NC(=O)c2cnn3cccnc23)cc1F [Example 128, N-(1-(3-fluoro-4-methylphenyl)-3-(pyridin-4-yl)-1H-pyrazol-5-yl)pyrazolo[1,5-a]pyrimidine-3-carboxamide] |  | < 1 µM |
| Cc1ccc(-n2nc(C3CCN(C4CN(C(=O)OCCF)C4)CC3)cc2NC(=O)c2cnn3cccnc23)cc1 [Example 241, 2-fluoroethyl 3-(4-{1-(4-methylphenyl)-5-[(pyrazolo[1,5-a]pyrimidin-3-ylcarbonyl)amino]-1H-pyrazol-3-yl}piperidin-1-yl)azetidine-1-carboxylate] |  | < 1 µM |
| Cc1ccc(-n2nc(N3CCOCC3)cc2NC(=O)c2cnn3cccnc23)nc1 [Example 202, N-(1-(5-methylpyridin-2-yl)-3-morpholino-1H-pyrazol-5-yl)pyrazolo[1,5-a]pyrimidine-3-carboxamide] | > 7.00 |  |
| O=C(Nc1cc(C2CCNCC2)nn1-c1cc(F)cc(F)c1)c1cnn2cccnc12 [Example 67, N-(1-(3,5-difluorophenyl)-3-(piperidin-4-yl)-1H-pyrazol-5-yl)pyrazolo[1,5-a]pyrimidine-3-carboxamide] |  | > 1 µM |
| Cc1ccc(-n2nc(C3CCN(C4CCC4)CC3)cc2NC(=O)c2cnn3cccnc23)c(F)c1 [Example 59, N-(3-(1-cyclobutylpiperidin-4-yl)-1-(2-fluoro-4-methylphenyl)-1H-pyrazol-5-yl)pyrazolo[1,5-a]pyrimidine-3-carboxamide] | > 7.00 |  |
| Cc1ccc(-n2nc(C3CCN(C4CCOCC4)CC3)cc2NC(=O)c2cnn3cccnc23)cc1 [Example 206] | > 7.00 |  |
| Cc1ccc(-n2nc(C3CN(Cc4ccccn4)C3)cc2NC(=O)c2cnn3cccnc23)cc1 [Example 308, N-{1-(4-methylphenyl)-3-[1-(pyridin-2-ylmethyl)azetidin-3-yl]-1H-pyrazol-5-yl}pyrazolo[1,5-a]pyrimidine-3-carboxamide] |  | < 1 µM |
| Cc1ccc(-n2nc(N3CCN(CC(C)C)CC3)cc2NC(=O)c2cnn3cccnc23)nc1 [Example 324, N-{3-[4-(2-methylpropyl)piperazin-1-yl]-1-(5-methylpyridin-2-yl)-1H-pyrazol-5-yl}pyrazolo[1,5-a]pyrimidine-3-carboxamide] | > 7.00 |  |
| CC(C)N1CCC(c2cc(NC(=O)c3cnn4cccnc34)n(-c3ncc[nH]3)n2)CC1 [Example 187, N-(1-(1H-imidazol-2-yl)-3-(1-isopropylpiperidin-4-yl)-1H-pyrazol-5-yl)pyrazolo[1,5-a]pyrimidine-3-carboxamide] |  | < 1 µM |
| Cc1ccc(-n2nc(C3CCN(C4Cc5ccccc5C4)CC3)cc2NC(=O)c2cnn3cccnc23)nc1 [Example 282, N-{3-[1-(2,3-dihydro-1H-inden-2-yl)piperidin-4-yl]-1-(5-methylpyridin-2-yl)-1H-pyrazol-5-yl}pyrazolo[1,5-a]pyrimidine-3-carboxamide] | > 7.00 |  |
| Cc1ccc(-n2nc(-c3cccnc3)cc2NC(=O)c2cnn3cccnc23)cc1 [Example 123, N-(3-(pyridin-3-yl)-1-(p-tolyl)-1H-pyrazol-5-yl)pyrazolo[1,5-a]pyrimidine-3-carboxamide] | > 7.00 |  |
| Cc1ccc(-n2nc(-c3csc(N4CCOCC4)n3)cc2NC(=O)c2cnn3cccnc23)cc1 [Example 335, N-[1-(4-methylphenyl)-3-(2-morpholin-4-yl-1,3-thiazol-4-yl)-1H-pyrazol-5-yl]pyrazolo[1,5-a]pyrimidine-3-carboxamide] |  | < 1 µM |
| Cc1ccc(-n2nc(C3CCN(S(=O)(=O)c4ccc(Cl)cc4Cl)CC3)cc2NC(=O)c2cnn3cccnc23)cc1 [Example 391, N-[3-{1[(2,4-dichlorophenyl)sulfonyl]piperidin-4-yl}-1-(4-methylphenyl)-1H-pyrazol-5-yl]pyrazolo[1,5-a]pyrimidine-3-carboxamide] |  | > 1 µM |
| Cc1ccc(-n2nc(-c3ccc(CN4CCOCC4)cc3)cc2NC(=O)c2cnn3cccnc23)cc1 [Example 145, N-(3-(4-(morpholinomethyl)phenyl)-1-(p-tolyl)-1H-pyrazol-5-yl)pyrazolo[1,5-a]pyrimidine-3-carboxamide] | > 7.00 |  |

| Compound | pIC50 | IC50 |
| --- | --- | --- |
| CCC(C)N1CCC(c2cc(NC(=O)c3cnn4cccnc34)n(-c3ccc(C)cc3)n2)CC1 (stereo not drawn) [Example 209] | > 7.00 |  |
| Cc1ccc(-n2nc(-c3ccc(S(C)(=O)=O)cc3)cc2NC(=O)c2cnn3cccnc23)nc1 [Example 179, N-(1-(5-methylpyridin-2-yl)-3-(4-(methylsulfonyl)phenyl)-1H-pyrazol-5-yl)pyrazolo[1,5-a]pyrimidine-3-carboxamide] | > 7.00 |  |
| CCN(CC)S(=O)(=O)c1ccc(-c2cc(NC(=O)c3cnn4cccnc34)n(-c3ccc(C)cc3)n2)c(C)c1 [Example 340, N-{3-[4-(diethylsulfamoyl)-2-methylphenyl]-1-(4-methylphenyl)-1H-pyrazol-5-yl}pyrazolo[1,5-a]pyrimidine-3-carboxamide] |  | < 1 µM |
| Cc1ccc(-n2nc(C3CCN(C4CCCC4)CC3)cc2NC(=O)c2cnn3cccnc23)cc1 [Example 325, N-(3-(1-cyclopentylpiperidin-4-yl)-1-(p-tolyl)-1H-pyrazol-5-yl)pyrazolo[1,5-a]pyrimidine-3-carboxamide] | > 7.00 |  |
| [2H]C([2H])([2H])c1ccc(-n2nc(N3CCN(C)CC3)cc2NC(=O)c2cnn3cccnc23)nc1 [Example 198, N-(3-(4-methylpiperazin-1-yl)-1-(5-trideuteromethylpyridin-2-yl)-1H-pyrazol-5-yl)pyrazolo[1,5-a]pyrimidine-3-carboxamide] | > 7.00 |  |
| Cc1ccc(-n2nc(C3CCN(S(=O)(=O)c4cccnc4Cl)CC3)cc2NC(=O)c2cnn3cccnc23)cc1 [Example 388, N-[3-{1-[(2-chloropyridin-3-yl)sulfonyl]piperidin-4-yl}-1-(4-methylphenyl)-1H-pyrazol-5-yl]pyrazolo[1,5-a]pyrimidine-3-carboxamide] |  | < 1 µM |
| COc1ncc(CN2CC(c3cc(NC(=O)c4cnn5cccnc45)n(-c4ccc(C)cc4)n3)C2)cn1 [Example 317, N-[3-{1-[(2-methoxypyrimidin-5-yl)methyl]azetidin-3-yl}-1-(4-methylphenyl)-1H-pyrazol-5-yl]pyrazolo[1,5-a]pyrimidine-3-carboxamide] |  | < 1 µM |
| Cc1ccc(-n2nc(C3COCCN3)cc2NC(=O)c2cnn3cccnc23)cc1 (stereo not drawn) [Example 79, N-(3-(morpholin-3-yl)-1-(p-tolyl)-1H-pyrazol-5-yl)pyrazolo[1,5-a]pyrimidine-3-carboxamide] |  | < 1 µM |
| COc1ccc(S(=O)(=O)N2CCC(c3cc(NC(=O)c4cnn5cccnc45)n(-c4ccc(C)cc4)n3)CC2)c(OC)c1 [Example 372, N-[3-{1-[(2,4-dimethoxyphenyl)sulfonyl]piperidin-4-yl}-1-(4-methylphenyl)-1H-pyrazol-5-yl]pyrazolo[1,5-a]pyrimidine-3-carboxamide] |  | < 1 µM |
| Cc1ccc(-n2nc(C3CCN(C(C)C)CC3)cc2NC(=O)c2cnn3cccnc23)cc1 [Example 37, N-(3-(1-isopropylpiperidin-4-yl)-1-(p-tolyl)-1H-pyrazol-5-yl)pyrazolo[1,5-a]pyrimidine-3-carboxamide] | > 7.00 |  |
| Cc1ccc(-n2nc(C3CCN(S(=O)(=O)c4ccc(F)cc4F)CC3)cc2NC(=O)c2cnn3cccnc23)cc1 [Example 370, N-[3-{1-[(2,4-difluorophenyl)sulfonyl]piperidin-4-yl}-1-(4-methylphenyl)-1H-pyrazol-5-yl]pyrazolo[1,5-a]pyrimidine-3-carboxamide] |  | < 1 µM |
| Cc1ccc(-n2nc(C3CCN(C(C)C)CC3)cc2NC(=O)c2cnn3cccnc23)c(F)c1 [Example 58, N-(1-(2-fluoro-4-methylphenyl)-3-(1-isopropylpiperidin-4-yl)-1H-pyrazol-5-yl)pyrazolo[1,5-a]pyrimidine-3-carboxamide] | > 7.00 |  |
| CNS(=O)(=O)c1ccc(-c2cc(NC(=O)c3cnn4cccnc34)n(-c3ccc(C)cc3F)n2)cc1 [Example 100, N-(1-(2-fluoro-4-methylphenyl)-3-(4-(N-methylsulfamoyl)phenyl)-1H-pyrazol-5-yl)pyrazolo[1,5-a]pyrimidine-3-carboxamide] | > 7.00 |  |
| Cc1ccc(-n2nc(C3CCCN(Cc4cncs4)C3)cc2NC(=O)c2cnn3cccnc23)cc1 (stereo not drawn) [Example 284, N-{1-(4-methylphenyl)-3-[1-(1,3-thiazol-5-ylmethyl)piperidin-3-yl]-1H-pyrazol-5-yl}pyrazolo[1,5-a]pyrimidine-3-carboxamide] |  | < 1 µM |
| O=C(Nc1cc(C2CCNCC2)nn1-c1ccc(C2CC2)cn1)c1cnn2cccnc12 [Example 146, N-(1-(5-cyclopropylpyridin-2-yl)-3-(piperidin-4-yl)-1H-pyrazol-5-yl)pyrazolo[1,5-a]pyrimidine-3-carboxamide] | > 7.00 |  |
| Cc1ccc(-n2nc(C3(C)CC3)cc2NC(=O)c2cnn3cccnc23)nc1 [Example 181, N-(3-(1-methylcyclopropyl)-1-(5-methylpyridin-2-yl)-1H-pyrazol-5-yl)pyrazolo[1,5-a]pyrimidine-3-carboxamide] |  | > 1 µM |
